Experimental data from paper PMC10934500, “Exploring the Anti-Diabetic Potential of Quercetagitrin through Dual Inhibition of PTPN6 and PTPN9” (Nutrients, 2024).

Target: PTPN6 (Homo sapiens, UniProt P29350)
Experiment: DiFMUP fluorescence phosphatase assay with recombinant enzyme purified from E. coli
Type: biochemical

Chain of PTPN6 (P29350 whole entry): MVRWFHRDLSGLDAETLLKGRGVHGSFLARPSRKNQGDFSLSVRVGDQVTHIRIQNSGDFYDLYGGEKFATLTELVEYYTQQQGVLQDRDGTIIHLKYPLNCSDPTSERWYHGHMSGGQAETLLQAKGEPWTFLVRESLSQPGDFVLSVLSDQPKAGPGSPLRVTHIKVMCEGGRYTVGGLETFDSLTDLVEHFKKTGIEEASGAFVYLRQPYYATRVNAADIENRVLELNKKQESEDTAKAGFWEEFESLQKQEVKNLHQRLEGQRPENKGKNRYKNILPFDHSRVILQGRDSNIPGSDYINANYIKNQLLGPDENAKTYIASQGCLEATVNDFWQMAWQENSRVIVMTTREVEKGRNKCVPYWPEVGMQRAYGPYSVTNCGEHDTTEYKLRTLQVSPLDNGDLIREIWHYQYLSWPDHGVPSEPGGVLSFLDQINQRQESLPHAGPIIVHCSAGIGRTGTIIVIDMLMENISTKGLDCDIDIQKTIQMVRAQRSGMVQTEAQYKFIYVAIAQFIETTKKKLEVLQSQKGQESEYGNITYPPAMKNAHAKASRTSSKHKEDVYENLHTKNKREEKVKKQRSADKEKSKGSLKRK

IC50: 1000 nM
SMILES: O=c1c(O)c(-c2ccc(O)c(O)c2)oc2cc(O[C@@H]3O[C@H](CO)[C@@H](O)[C@H](O)[C@H]3O)c(O)c(O)c12 [QG, quercetagitrin]
